Experimental data: patent publication US8933230B2, “Phosphorus-containing group-substituted quinoline, its preparation process, medical composition containing the compounds and application” (priority 2011, dated 2015)

Legend:
Assay in all cases: KinomeScan kinase panel
Type in all cases: binding
[1] = biological target: T1, ABL1(E255K)-phosphorylated (Homo sapiens, UniProt P00519, E255K)
T1 construct: purchased DiscoveRx Corporation (KinomeScan)
In short: (§1)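 Single-point screen: 1000 nM compound, KinomeScan panel of 442 kinases.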

ABL1-nonphosphorylated = biological target: T2, ABL1-nonphosphorylated (Homo sapiens, UniProt P00519)
T2 construct: purchased DiscoveRx Corporation (KinomeScan)
In short: as §1

ABL2 = biological target: T3, ABL2 (Homo sapiens, UniProt P42684)
T3 construct: purchased DiscoveRx Corporation (KinomeScan)
In short: as §1

ARK5 = biological target: T4, ARK5 (Homo sapiens, UniProt O60285)
T4 construct: purchased DiscoveRx Corporation (KinomeScan)
T4 sequence (O60285 whole entry): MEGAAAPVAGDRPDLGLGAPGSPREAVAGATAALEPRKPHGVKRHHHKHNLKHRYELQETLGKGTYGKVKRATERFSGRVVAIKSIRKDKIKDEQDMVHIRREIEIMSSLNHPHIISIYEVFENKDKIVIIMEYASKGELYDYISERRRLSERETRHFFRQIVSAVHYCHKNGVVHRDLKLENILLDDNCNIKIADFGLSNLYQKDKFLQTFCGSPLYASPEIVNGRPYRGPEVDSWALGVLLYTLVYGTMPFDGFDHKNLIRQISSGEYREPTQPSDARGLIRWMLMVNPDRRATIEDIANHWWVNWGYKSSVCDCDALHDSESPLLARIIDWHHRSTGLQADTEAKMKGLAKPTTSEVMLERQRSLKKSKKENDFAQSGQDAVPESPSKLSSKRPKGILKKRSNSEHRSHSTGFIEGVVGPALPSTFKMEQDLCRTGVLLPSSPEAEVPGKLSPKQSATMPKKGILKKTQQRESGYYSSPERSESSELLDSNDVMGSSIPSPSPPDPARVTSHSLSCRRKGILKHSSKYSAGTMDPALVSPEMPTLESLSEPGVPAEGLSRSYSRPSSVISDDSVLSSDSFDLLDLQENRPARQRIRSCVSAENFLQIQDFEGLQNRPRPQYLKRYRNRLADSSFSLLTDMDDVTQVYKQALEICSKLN
In short: as §1

CAMK1 = biological target: T5, CAMK1 (Homo sapiens, UniProt Q14012)
T5 construct: purchased DiscoveRx Corporation (KinomeScan)
T5 sequence (Q14012 whole entry): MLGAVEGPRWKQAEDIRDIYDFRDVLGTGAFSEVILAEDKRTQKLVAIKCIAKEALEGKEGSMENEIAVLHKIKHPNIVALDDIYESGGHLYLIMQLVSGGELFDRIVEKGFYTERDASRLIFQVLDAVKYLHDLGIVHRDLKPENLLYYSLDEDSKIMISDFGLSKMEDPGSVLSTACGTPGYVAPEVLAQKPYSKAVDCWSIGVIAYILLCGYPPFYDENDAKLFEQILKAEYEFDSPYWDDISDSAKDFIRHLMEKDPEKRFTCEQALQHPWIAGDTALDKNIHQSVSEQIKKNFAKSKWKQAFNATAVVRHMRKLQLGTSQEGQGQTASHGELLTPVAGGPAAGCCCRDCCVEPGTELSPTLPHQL
In short: as §1

CAMK1D = biological target: T6, CAMK1D (Homo sapiens, UniProt Q8IU85)
T6 construct: purchased DiscoveRx Corporation (KinomeScan)
In short: as §1

CDC2L2 = biological target: T7, CDC2L2 (Homo sapiens, UniProt Q9UQ88)
T7 construct: purchased DiscoveRx Corporation (KinomeScan)
In short: as §1

CDC2L5 = biological target: T8, CDC2L5 (Homo sapiens, UniProt Q14004)
T8 construct: purchased DiscoveRx Corporation (KinomeScan)
In short: as §1

CDK8 = biological target: T9, CDK8 (Homo sapiens, UniProt P49336)
T9 construct: purchased DiscoveRx Corporation (KinomeScan)
In short: as §1

CSNK1G1 = biological target: T10, CSNK1G1 (Homo sapiens, UniProt Q9HCP0)
T10 construct: purchased DiscoveRx Corporation (KinomeScan)
In short: as §1

DAPK1 = biological target: T11, DAPK1 (Homo sapiens, UniProt P53355)
T11 construct: purchased DiscoveRx Corporation (KinomeScan)
In short: as §1

DRAK2 = biological target: T12, DRAK2 (Homo sapiens, UniProt O94768)
T12 construct: purchased DiscoveRx Corporation (KinomeScan)
T12 sequence (O94768 whole entry): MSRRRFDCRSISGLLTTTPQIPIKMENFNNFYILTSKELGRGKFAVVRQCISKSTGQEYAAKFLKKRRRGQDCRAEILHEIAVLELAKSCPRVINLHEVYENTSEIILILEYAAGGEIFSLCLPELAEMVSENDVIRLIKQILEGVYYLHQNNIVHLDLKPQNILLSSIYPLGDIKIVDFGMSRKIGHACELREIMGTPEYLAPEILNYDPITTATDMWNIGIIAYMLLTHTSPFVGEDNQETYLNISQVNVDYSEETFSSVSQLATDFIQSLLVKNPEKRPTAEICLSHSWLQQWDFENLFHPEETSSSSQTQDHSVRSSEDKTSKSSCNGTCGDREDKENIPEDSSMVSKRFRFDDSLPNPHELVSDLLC
In short: as §1

EGFR(E746-A750del) = biological target: T13, EGFR(E746-A750del) (Homo sapiens, UniProt P00533, DEL746-750)
T13 construct: purchased DiscoveRx Corporation (KinomeScan)
In short: as §1

EPHA2 = biological target: T14, EPHA2 (Homo sapiens, UniProt P29317)
T14 construct: purchased DiscoveRx Corporation (KinomeScan)
In short: as §1

ERBB3 = biological target: T15, ERBB3 (Homo sapiens, UniProt P21860)
T15 construct: purchased DiscoveRx Corporation (KinomeScan)
In short: as §1

GSK3B = biological target: T16, GSK3B (Homo sapiens, UniProt P49841)
T16 construct: purchased DiscoveRx Corporation (KinomeScan)
In short: as §1

MARK1 = biological target: T17, MARK1 (Homo sapiens, UniProt Q9P0L2)
T17 construct: purchased DiscoveRx Corporation (KinomeScan)
In short: as §1

MEK1 = biological target: T18, MEK1 (Homo sapiens, UniProt Q02750)
T18 construct: purchased DiscoveRx Corporation (KinomeScan)
In short: as §1

MKNK1 = biological target: T19, MKNK1 (Homo sapiens, UniProt Q9BUB5)
T19 construct: purchased DiscoveRx Corporation (KinomeScan)
In short: as §1

MKNK2 = biological target: T20, MKNK2 (Homo sapiens, UniProt Q9HBH9)
T20 construct: purchased DiscoveRx Corporation (KinomeScan)
T20 sequence (Q9HBH9 whole entry): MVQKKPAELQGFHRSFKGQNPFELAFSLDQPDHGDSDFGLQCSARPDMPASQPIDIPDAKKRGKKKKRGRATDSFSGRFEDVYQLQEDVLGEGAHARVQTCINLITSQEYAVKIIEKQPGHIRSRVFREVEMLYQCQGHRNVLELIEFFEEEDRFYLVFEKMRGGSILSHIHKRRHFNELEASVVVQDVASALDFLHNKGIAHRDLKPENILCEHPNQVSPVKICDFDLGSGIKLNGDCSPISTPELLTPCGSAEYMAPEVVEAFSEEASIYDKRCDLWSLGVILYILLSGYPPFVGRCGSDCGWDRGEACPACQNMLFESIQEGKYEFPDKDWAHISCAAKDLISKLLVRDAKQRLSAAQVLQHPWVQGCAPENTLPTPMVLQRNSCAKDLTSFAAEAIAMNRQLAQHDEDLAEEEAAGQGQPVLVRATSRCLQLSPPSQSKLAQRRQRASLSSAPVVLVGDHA
In short: as §1

MRCKA = biological target: T21, MRCKA (Homo sapiens, UniProt Q5VT25)
T21 construct: purchased DiscoveRx Corporation (KinomeScan)
In short: as §1

PAK1 = biological target: T22, PAK1 (Homo sapiens, UniProt Q13153)
T22 construct: purchased DiscoveRx Corporation (KinomeScan panel)
T22 sequence (Q13153 whole entry): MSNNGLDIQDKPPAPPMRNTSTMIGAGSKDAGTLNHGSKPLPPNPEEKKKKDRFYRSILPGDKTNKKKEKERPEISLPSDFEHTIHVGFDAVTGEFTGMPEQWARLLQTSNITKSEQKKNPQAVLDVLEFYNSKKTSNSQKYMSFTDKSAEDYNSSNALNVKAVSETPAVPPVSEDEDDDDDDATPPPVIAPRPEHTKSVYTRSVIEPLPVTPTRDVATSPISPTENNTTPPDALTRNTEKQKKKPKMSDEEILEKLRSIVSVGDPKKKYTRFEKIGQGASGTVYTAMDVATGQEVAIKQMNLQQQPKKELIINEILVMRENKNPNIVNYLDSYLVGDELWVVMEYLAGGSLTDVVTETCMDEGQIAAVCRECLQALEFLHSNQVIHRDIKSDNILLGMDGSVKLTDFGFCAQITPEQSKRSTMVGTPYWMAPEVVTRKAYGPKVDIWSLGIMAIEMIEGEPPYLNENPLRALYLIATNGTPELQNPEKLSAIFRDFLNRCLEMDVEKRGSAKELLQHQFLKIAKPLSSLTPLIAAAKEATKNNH
In short: as §1

PIK3CA(18DDL) = biological target: T23, PIK3CA(18DDL) (Homo sapiens, UniProt P42336, I800L)
T23 construct: purchased DiscoveRx Corporation (KinomeScan)
In short: as §1

PIK4CB = biological target: T24, PIK4CB (Homo sapiens, UniProt Q9UBF8)
T24 construct: purchased DiscoveRx Corporation (KinomeScan)
In short: as §1

PIP5K1C = biological target: T25, PIP5K1C (Homo sapiens, UniProt O60331)
T25 construct: purchased DiscoveRx Corporation (KinomeScan)
In short: as §1

PIP5K2B = biological target: T26, PIP5K2B (Homo sapiens, UniProt P78356)
T26 construct: purchased DiscoveRx Corporation (KinomeScan)
T26 sequence (P78356 whole entry): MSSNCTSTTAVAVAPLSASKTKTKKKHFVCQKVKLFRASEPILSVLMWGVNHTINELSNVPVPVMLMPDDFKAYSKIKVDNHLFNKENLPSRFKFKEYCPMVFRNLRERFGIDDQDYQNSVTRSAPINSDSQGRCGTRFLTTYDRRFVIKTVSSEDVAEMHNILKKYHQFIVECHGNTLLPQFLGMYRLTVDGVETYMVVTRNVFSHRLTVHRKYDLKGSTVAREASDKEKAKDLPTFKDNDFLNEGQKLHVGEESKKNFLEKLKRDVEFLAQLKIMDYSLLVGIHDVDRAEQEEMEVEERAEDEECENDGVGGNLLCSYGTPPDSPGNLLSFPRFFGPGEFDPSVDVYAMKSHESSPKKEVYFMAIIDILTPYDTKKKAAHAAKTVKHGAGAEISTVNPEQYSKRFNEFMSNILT
In short: as §1

PKN2 = biological target: T27, PKN2 (Homo sapiens, UniProt Q16513)
T27 construct: purchased DiscoveRx Corporation (KinomeScan)
T27 sequence (Q16513 whole entry): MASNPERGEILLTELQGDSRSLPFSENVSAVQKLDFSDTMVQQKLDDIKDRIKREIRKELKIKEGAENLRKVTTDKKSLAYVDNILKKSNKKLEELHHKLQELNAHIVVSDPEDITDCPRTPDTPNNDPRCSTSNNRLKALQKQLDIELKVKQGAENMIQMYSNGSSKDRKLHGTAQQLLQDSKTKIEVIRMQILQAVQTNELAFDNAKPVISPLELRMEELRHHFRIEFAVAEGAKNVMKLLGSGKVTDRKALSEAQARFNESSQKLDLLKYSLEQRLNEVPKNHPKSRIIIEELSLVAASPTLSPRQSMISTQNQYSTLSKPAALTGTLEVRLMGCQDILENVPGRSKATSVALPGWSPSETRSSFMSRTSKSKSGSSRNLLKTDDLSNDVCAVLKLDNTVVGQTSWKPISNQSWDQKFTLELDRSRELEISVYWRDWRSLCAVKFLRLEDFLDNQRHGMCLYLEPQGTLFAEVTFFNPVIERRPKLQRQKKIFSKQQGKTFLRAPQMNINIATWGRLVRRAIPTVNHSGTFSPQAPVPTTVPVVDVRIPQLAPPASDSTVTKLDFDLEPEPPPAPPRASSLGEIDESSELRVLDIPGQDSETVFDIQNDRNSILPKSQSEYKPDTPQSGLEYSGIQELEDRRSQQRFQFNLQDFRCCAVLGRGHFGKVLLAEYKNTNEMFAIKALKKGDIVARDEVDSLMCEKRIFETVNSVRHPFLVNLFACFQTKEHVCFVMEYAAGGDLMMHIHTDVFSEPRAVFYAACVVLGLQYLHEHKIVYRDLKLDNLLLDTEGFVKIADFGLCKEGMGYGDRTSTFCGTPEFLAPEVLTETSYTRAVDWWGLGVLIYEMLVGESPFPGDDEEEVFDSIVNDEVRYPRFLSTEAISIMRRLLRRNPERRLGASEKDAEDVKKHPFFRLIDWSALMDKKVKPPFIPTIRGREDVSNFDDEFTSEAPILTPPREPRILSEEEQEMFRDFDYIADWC
In short: as §1

RET = biological target: T28, RET (Homo sapiens, UniProt P07949)
T28 construct: purchased DiscoveRx Corporation
In short: as §1

RIOK2 = biological target: T29, RIOK2 (Homo sapiens, UniProt Q9BVS4)
T29 construct: purchased DiscoveRx Corporation
In short: as §1

[2] = biological target: T30, RSK3(Kin.Dom.2-C-terminal) (Homo sapiens, UniProt Q15349)
T30 construct: Kin.Dom.2; purchased DiscoveRx Corporation (KinomeScan)
In short: as §1

[3] = biological target: T31, RSK4(Kin.Dom.2-C-terminal) (Homo sapiens, UniProt Q9UK32)
T31 construct: Kin.Dom.2; purchased DiscoveRx Corporation (KinomeScan)
In short: as §1

SGK3 = biological target: T32, SGK3 (Homo sapiens, UniProt Q96BR1)
T32 construct: purchased DiscoveRx Corporation (KinomeScan)
In short: as §1

SNARK = biological target: T33, SNARK (Homo sapiens, UniProt Q9H093)
T33 construct: purchased DiscoveRx Corporation (KinomeScan)
T33 sequence (Q9H093 whole entry): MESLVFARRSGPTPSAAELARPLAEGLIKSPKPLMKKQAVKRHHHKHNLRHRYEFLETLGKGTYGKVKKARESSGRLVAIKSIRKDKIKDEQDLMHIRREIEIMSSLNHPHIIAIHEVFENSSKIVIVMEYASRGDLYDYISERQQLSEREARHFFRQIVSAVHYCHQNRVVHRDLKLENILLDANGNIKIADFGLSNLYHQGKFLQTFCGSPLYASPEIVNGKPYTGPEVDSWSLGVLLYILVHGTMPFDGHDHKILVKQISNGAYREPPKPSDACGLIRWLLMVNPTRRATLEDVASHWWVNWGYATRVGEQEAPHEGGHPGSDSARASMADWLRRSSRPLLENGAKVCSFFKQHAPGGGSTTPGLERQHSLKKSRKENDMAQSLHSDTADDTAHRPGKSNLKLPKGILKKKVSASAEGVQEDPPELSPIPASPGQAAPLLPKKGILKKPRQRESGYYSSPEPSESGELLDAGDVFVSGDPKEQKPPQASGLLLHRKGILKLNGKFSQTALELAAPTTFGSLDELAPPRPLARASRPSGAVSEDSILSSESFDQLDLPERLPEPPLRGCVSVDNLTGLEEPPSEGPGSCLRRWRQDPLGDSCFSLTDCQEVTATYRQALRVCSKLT
In short: as §1

SRPK3 = biological target: T34, SRPK3 (Homo sapiens, UniProt Q9UPE1)
T34 construct: purchased DiscoveRx Corporation (KinomeScan)
T34 sequence (Q9UPE1 whole entry): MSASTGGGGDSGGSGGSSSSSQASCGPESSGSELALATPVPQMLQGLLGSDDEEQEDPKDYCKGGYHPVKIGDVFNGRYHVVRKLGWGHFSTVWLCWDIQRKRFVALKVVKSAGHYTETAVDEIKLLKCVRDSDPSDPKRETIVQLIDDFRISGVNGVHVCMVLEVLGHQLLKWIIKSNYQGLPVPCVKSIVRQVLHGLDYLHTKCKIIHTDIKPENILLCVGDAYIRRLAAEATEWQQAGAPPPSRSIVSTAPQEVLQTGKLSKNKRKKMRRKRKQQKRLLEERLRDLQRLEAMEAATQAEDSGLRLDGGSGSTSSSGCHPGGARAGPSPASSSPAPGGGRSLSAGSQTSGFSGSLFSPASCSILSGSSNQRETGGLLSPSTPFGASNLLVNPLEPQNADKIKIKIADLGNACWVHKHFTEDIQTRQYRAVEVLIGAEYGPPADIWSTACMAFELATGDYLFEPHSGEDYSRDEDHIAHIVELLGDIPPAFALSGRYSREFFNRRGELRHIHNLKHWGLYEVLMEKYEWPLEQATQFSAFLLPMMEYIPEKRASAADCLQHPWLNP
In short: as §1

ULK3 = biological target: T35, ULK3 (Homo sapiens, UniProt Q6PHR2)
T35 construct: purchased DiscoveRx Corporation (KinomeScan service)
In short: as §1

In the case of `CCOP(=O)(CN1CCC(COc2cc3nccc(Oc4ccc(NC(=O)C5(C(=O)Nc6ccc(F)cc6)CC5)cc4F)c3cc2OC)CC1)OCC` [Example 10, N1-[4-[[7-[[1-(diethoxyphosphorylmethyl)-4-piperidinyl]methoxyl]-6-methoxyl-4-quinolyl]oxyl]-3-fluorophenyl]-N1′-(4-fluorophenyl)cyclopropane-1,1-dicarboxamide], the “% Ctrl@1000 nM” value [1] is reported as 63 % Ctrl, the “% Ctrl@1000 nM” value (ABL1-nonphosphorylated) is reported as 1.8 % Ctrl and the “% Ctrl@1000 nM” value (ABL2) is reported as 28 % Ctrl. For the same molecule, the “% Ctrl@1000 nM” value (ARK5) was 100 % Ctrl, the “% Ctrl@1000 nM” value (CAMK1) was 78 % Ctrl and the “% Ctrl@1000 nM” value (CAMK1D) was 96 % Ctrl. The “% Ctrl@1000 nM” value (CDC2L2) was 100 % Ctrl, the “% Ctrl@1000 nM” value (CDC2L5) was 100 % Ctrl and the “% Ctrl@1000 nM” value (CDK8) was 76 % Ctrl. For the same molecule, the “% Ctrl@1000 nM” value (CSNK1G1) was 100 % Ctrl, the “% Ctrl@1000 nM” value (DAPK1) was 100 % Ctrl and the “% Ctrl@1000 nM” value (DRAK2) was 100 % Ctrl. For the same molecule, the “% Ctrl@1000 nM” value (EGFR(E746-A750del)) was 92 % Ctrl, the “% Ctrl@1000 nM” value (EPHA2) was 4.8 % Ctrl and the “% Ctrl@1000 nM” value (ERBB3) was 98 % Ctrl. For the same molecule, the “% Ctrl@1000 nM” value (GSK3B) was 100 % Ctrl, the “% Ctrl@1000 nM” value (MARK1) was 100 % Ctrl and the “% Ctrl@1000 nM” value (MEK1) was 24 % Ctrl. For the same molecule, the “% Ctrl@1000 nM” value (MKNK1) was 45 % Ctrl, the “% Ctrl@1000 nM” value (MKNK2) was 0.05 % Ctrl and the “% Ctrl@1000 nM” value (MRCKA) was 100 % Ctrl. The “% Ctrl@1000 nM” value (PAK1) was 37 % Ctrl, the “% Ctrl@1000 nM” value (PIK3CA(18DDL)) was 100 % Ctrl and the “% Ctrl@1000 nM” value (PIK4CB) was 100 % Ctrl. For the same molecule, the “% Ctrl@1000 nM” value (PIP5K1C) was 100 % Ctrl, the “% Ctrl@1000 nM” value (PIP5K2B) was 100 % Ctrl and the “% Ctrl@1000 nM” value (PKN2) was 2.6 % Ctrl. The “% Ctrl@1000 nM” value (RET) was 0.1 % Ctrl, the “% Ctrl@1000 nM” value (RIOK2) was 100 % Ctrl and the “% Ctrl@1000 nM” value [2] was 100 % Ctrl. The “% Ctrl@1000 nM” value [3] was 91 % Ctrl, the “% Ctrl@1000 nM” value (SGK3) was 75 % Ctrl and the “% Ctrl@1000 nM” value (SNARK) was 100 % Ctrl. The “% Ctrl@1000 nM” value (SRPK3) was 100 % Ctrl and the “% Ctrl@1000 nM” value (ULK3) was 82 % Ctrl.
